For 31 molecules, EC30 results are on record in patent US10758534B2 (Vertex Pharmaceuticals Incorporated, priority 2014, dated 2020).

Bounds are passed on as bounds.

T1 sequence (P13569 with tags, fused parts or gaps DEL508-508): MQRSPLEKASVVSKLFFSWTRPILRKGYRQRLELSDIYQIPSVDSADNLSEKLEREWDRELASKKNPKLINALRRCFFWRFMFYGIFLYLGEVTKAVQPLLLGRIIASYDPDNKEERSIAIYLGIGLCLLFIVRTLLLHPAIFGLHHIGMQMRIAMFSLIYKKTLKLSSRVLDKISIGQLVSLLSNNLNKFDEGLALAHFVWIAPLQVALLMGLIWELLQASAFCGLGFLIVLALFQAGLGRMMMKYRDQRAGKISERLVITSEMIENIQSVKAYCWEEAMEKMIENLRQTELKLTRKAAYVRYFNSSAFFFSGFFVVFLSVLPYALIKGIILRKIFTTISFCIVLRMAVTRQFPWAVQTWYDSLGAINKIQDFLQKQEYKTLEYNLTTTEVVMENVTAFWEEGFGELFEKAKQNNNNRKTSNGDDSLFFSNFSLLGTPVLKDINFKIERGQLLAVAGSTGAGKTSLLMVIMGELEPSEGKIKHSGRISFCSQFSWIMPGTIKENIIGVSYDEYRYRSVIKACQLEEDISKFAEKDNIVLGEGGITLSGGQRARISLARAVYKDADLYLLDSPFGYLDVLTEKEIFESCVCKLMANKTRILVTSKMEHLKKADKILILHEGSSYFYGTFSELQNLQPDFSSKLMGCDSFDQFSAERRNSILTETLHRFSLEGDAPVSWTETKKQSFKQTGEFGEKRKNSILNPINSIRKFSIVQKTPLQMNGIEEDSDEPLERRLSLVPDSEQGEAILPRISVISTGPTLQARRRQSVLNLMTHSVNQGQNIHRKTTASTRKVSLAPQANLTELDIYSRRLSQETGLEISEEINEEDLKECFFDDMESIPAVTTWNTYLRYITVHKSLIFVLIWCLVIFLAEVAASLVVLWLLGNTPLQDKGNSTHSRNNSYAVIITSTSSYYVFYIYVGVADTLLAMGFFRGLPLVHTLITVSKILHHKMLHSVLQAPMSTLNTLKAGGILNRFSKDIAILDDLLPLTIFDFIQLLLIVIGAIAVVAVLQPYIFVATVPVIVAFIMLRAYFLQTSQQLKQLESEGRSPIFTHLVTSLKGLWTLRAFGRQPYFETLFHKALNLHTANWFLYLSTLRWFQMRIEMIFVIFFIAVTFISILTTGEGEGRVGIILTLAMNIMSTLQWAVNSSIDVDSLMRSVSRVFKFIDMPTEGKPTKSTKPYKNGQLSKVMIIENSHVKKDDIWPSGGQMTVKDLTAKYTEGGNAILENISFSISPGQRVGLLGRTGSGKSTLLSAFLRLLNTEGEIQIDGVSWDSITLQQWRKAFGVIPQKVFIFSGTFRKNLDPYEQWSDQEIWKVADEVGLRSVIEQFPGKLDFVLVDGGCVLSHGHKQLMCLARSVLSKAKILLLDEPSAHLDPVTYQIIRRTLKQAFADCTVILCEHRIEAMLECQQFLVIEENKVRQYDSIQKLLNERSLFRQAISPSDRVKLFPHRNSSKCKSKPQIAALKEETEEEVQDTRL

One experiment has as its target T1, F508del (Homo sapiens, UniProt P13569, DEL508-508).
T1 construct: expressed in transfected cells
The experiment can be described thus: Protocol 2: FRET membrane potential optical assay (VIPR), identification of correction compounds. In kind it is cell-based. The following applies: F508del CFTR modulator activity; compounds of Table 1; read-out: EC30. In short, it runs like this:
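Single-addition HTS format: F508del-expressing NIH3T3 cells pre-incubated 16 hrs at 37° C. ± compound, with 27° C. culture as positive control. Channel activation by forskolin 10 μM and genistein 20 μM upon switch to gluconate bath, pH 7.4; read-out is FRET-based depolarization signal.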
As a reminder, the EC30 is the point of the concentration-response curve where the effect stands at 30%. With `CCOCCN(C)c1ncc(-c2ccc(C(=O)NS(=O)(=O)c3cccc(N)n3)c(N3C[C@@H](C)CC3(C)C)n2)cc1C` [Compound 2682], the EC30 is less than 3 µM.
Consider `Cc1ccc(F)cc1-c1ccc(C(=O)NS(=O)(=O)c2cccc(N)n2)c(N2C[C@@H](C)CC2(C)C)n1` [Compound 2394, N-[(6-amino-2-pyridyl)sulfonyl]-6-(5-fluoro-2-methyl-phenyl)-2-[(4S)-2,2,4-trimethylpyrrolidin-1-yl]pyridine-3-carboxamide], for which the EC30 was less than 3 µM.
With `CC(C)COc1cc(F)cc(-c2ccc(C(=O)NS(=O)(=O)c3cccc(N)n3)c(N3CC(C(C)(C)C)CC3(C)C)n2)c1` (stereo not shown) [Compound 2538, N-[(6-amino-2-pyridyl)sulfonyl]-2-(4-tert-butyl-2,2-dimethyl-pyrrolidin-1-yl)-6-(3-fluoro-5-isobutoxy-phenyl)pyridine-3-carboxamide], the EC30 is less than 3 µM.
Same read-out and setting: the figure for `CC1CN(c2ncccc2C(=O)NS(=O)(=O)c2cccc(Oc3cccc(Cl)c3Cl)n2)C(C)(C)C1` (stereo not shown) [Compound 2720] is less than 3 µM; for `CCOc1ccc(-c2cnc(N3CC(C)CC3(C)C)c(C(=O)NS(=O)(=O)c3cccc(N)n3)c2)cn1` (stereo not shown) [Compound 2384, N-[(6-amino-2-pyridyl)sulfonyl]-5-(6-ethoxy-3-pyridyl)-2-(2,2,4-trimethylpyrrolidin-1-yl)pyridine-3-carboxamide] it is less than 3 µM.
Take `CCOc1cccc(-c2ccc(C(=O)NS(=O)(=O)N3CC[C@H](N)C3)c(N3C[C@@H](C)CC3(C)C)n2)c1` [Compound 2570, N-[(3S)-3-aminopyrrolidin-1-yl]sulfonyl-6-(3-ethoxyphenyl)-2-[(4S)-2,2,4-trimethylpyrrolidin-1-yl]pyridine-3-carboxamide]: the EC30 lay in the range of 3 to 10 µM.
The same measure, in the same setting: the same measure for `CCOc1ccc(-c2ccc(C(=O)NS(=O)(=O)c3ccc[nH]c3=O)c(N3C[C@@H](C)CC3(C)C)n2)cc1` [Compound 2207, 6-(4-ethoxyphenyl)-N-[(2-oxo-1H-pyridin-3-yl)sulfonyl]-2-[(4S)-2,2,4-trimethylpyrrolidin-1-yl]pyridine-3-carboxamide]: less than 3 µM; for `COC(=O)c1cccc(Nc2cccc(S(=O)(=O)NC(=O)c3cccnc3N3CC(C)CC3(C)C)n2)c1` (stereo not shown) [Compound 2493, methyl 3-[[6-[[2-(2,2,4-trimethylpyrrolidin-1-yl)pyridine-3-carbonyl]sulfamoyl]-2-pyridyl]amino]benzoate]: less than 3 µM; for `CC(C)COc1cc(F)cc(-c2nc(N3C[C@@H](C)CC3(C)C)c(C(=O)NS(=O)(=O)c3cccc(N)n3)cc2F)c1` [Compound 2473, N-[(6-amino-2-pyridyl)sulfonyl]-5-fluoro-6-(3-fluoro-5-isobutoxy-phenyl)-2-[(4S)-2,2,4-trimethylpyrrolidin-1-yl]pyridine-3-carboxamide]: less than 3 µM.
Still for that read-out and setting: the figure for `Cc1ccc(-c2ccc(C(=O)NS(=O)(=O)c3cccnc3N)c(N3C[C@@H](C)CC3(C)C)n2)cn1` [Compound 2363, N-[(2-amino-3-pyridyl)sulfonyl]-6-(6-methyl-3-pyridyl)-2-[(4S)-2,2,4-trimethylpyrrolidin-1-yl]pyridine-3-carboxamide] is 3 to 10 µM; for `CC1CN(c2ncc(-c3ccc(OC(F)(F)F)cc3)cc2C(=O)NS(=O)(=O)c2cccc(N)n2)C(C)(C)C1` (stereo not shown) [Compound 2649, N-[(6-amino-2-pyridyl)sulfonyl]-5-[4-(trifluoromethoxy)phenyl]-2-(2,2,4-trimethylpyrrolidin-1-yl)pyridine-3-carboxamide] it is less than 3 µM.
Regarding `CC1CN(c2ncc(/C=C/C3CCCCC3)cc2C(=O)NS(=O)(=O)c2cccc(N)n2)C(C)(C)C1` (stereo not shown) [Compound 2063, N-[(6-amino-2-pyridyl)sulfonyl]-5-[(E)-2-cyclohexylvinyl]-2-(2,2,4-trimethylpyrrolidin-1-yl)pyridine-3-carboxamide], the EC30 was less than 3 µM.
Same read-out and setting: the same measure for `C[C@@H]1CN(c2nc3ccccc3cc2C(=O)NS(=O)(=O)c2ccc[nH]c2=O)C(C)(C)C1` [Compound 2405, N-[(2-oxo-1H-pyridin-3-yl)sulfonyl]-2-[(4S)-2,2,4-trimethylpyrrolidin-1-yl]quinoline-3-carboxamide]: less than 3 µM.

The same experiment, now with this note: Table 3; compounds of Table 1 as modulators of CFTR activity; protocol not stated.
On to `Cc1cc(C)c(Cc2oc(C(C)(C)C)nc2C(=O)NS(=O)(=O)c2cccc(N)c2)c(C)c1` [Compound 360, N-(3-aminophenyl)sulfonyl-2-tert-butyl-5-[(2,4,6-trimethylphenyl)methyl]oxazole-4-carboxamide], for which the EC30 result is given as “+++ (“+++” means <3 uM)”.
Take `Cc1cc(C)c(Oc2nc(C(F)(F)F)ccc2C(=O)NS(=O)(=O)c2cccc(N)c2)c(C)c1` [Compound 96, N-(3-aminophenyl)sulfonyl-6-(trifluoromethyl)-2-(2,4,6-trimethylphenoxy)pyridine-3-carboxamide]: the EC30 result is on record as “+++ (“+++” means <3 uM)”.
Still for that read-out and setting: the entry for `CC(C)(C)c1ccc(C(=O)NS(=O)(=O)c2ccccc2)c(OCc2ccccn2)n1` [Compound 154, N-(benzenesulfonyl)-6-tert-butyl-2-(2-pyridylmethoxy)pyridine-3-carboxamide] is “+++ (“+++” means <3 uM)”; for `Cc1cc(C)c(Cn2c(C(=O)NS(=O)(=O)c3ccccc3C#N)cc3ccccc32)c(C)c1` [Compound 358] it is “+++ (“+++” means <3 uM)”.
As to `CC1CN(c2nc(-c3ccc(Cl)c(OC(C)C)c3)ccc2C(=O)NS(=O)(=O)c2cccc(N)n2)C(C)(C)C1` (stereo not shown) [Compound 504, N-[(6-amino-2-pyridyl)sulfonyl]-6-(4-chloro-3-isopropoxy-phenyl)-2-(2,2,4-trimethylpyrrolidin-1-yl)pyridine-3-carboxamide], the concentration for an effect of 30% (EC30) entry was “+++ (“+++” means <3 uM)”.
On the same count and under the same terms, the entry for `CC(C)COc1cc(F)cc(-c2ccc(C(=O)NS(=O)(=O)c3cccc(N)n3)c(N3CCCC3C3CC3)n2)c1` (stereo not shown) [Compound 593, N-[(6-amino-2-pyridyl)sulfonyl]-2-(2-cyclopropylpyrrolidin-1-yl)-6-(3-fluoro-5-isobutoxy-phenyl)pyridine-3-carboxamide] is “+++ (“+++” means <3 uM)”; for `Cc1cc(C)c(Oc2nc(-c3cccc4nn(C)cc34)ccc2C(=O)NS(=O)(=O)c2cccc(N)n2)c(C)c1` [Compound 451, N-[(6-amino-2-pyridyl)sulfonyl]-6-(2-methylindazol-4-yl)-2-(2,4,6-trimethylphenoxy)pyridine-3-carboxamide] it is “++ (“++” means between 3 uM and 10 uM)”.
On the same count and under the same terms, the entry for `Cc1cccc(C)c1Cn1nc(-c2ccccc2N(C)C)cc1C(=O)NS(=O)(=O)c1ccccc1` [Compound 128, N-(benzenesulfonyl)-5-[2-(dimethylamino)phenyl]-2-[(2,6-dimethylphenyl)methyl]pyrazole-3-carboxamide] is “+++ (“+++” means <3 uM)”; for `COc1ccccc1-c1cc(C(=O)NS(=O)(=O)c2ccccc2)n(Cc2c(C)cccc2C)n1` [Compound 347, N-(benzenesulfonyl)-2-[(2,6-dimethylphenyl)methyl]-5-(2-methoxyphenyl)pyrazole-3-carboxamide] it is “+++ (“+++” means <3 uM)”; for `COc1cccc(S(=O)(=O)NC(=O)c2ccc(C(C)(C)C)nc2Oc2c(C)cc(C)cc2C)n1` [Compound 34, 6-tert-butyl-N-[(6-methoxy-2-pyridyl)sulfonyl]-2-(2,4,6-trimethylphenoxy)pyridine-3-carboxamide] it is “+++ (“+++” means <3 uM)”.
Consider `Cc1cc(C)c(Oc2nc(-c3cccc(F)c3)ccc2C(=O)NS(=O)(=O)c2cccc(N)n2)c(C)c1` [Compound 570, N-[(6-amino-2-pyridyl)sulfonyl]-6-(3-fluorophenyl)-2-(2,4,6-trimethylphenoxy)pyridine-3-carboxamide], for which the EC30 result is given as “+++ (“+++” means <3 uM)”.
As to `CNc1cccc(S(=O)(=O)NC(=O)c2ccc(C)nc2Oc2c(C)cc(C)cc2C)n1` [Compound 646, 6-methyl-N-[[6-(methylamino)-2-pyridyl]sulfonyl]-2-(2,4,6-trimethylphenoxy)pyridine-3-carboxamide], the EC30 result was “++ (“++” means between 3 uM and 10 uM)”.
For `Cc1cc(C)c(Cn2c(C(=O)NS(=O)(=O)c3ccccc3)cc3ccc(F)cc32)c(C)c1` [Compound 212, N-(benzenesulfonyl)-6-fluoro-1-[(2,4,6-trimethylphenyl)methyl]indole-2-carboxamide], the EC30 entry is given as “+++ (“+++” means <3 uM)”.
`CC(C)(C)c1ccc(C(=O)NS(=O)(=O)c2cccc(N)n2)c(-c2ccc(F)cc2)n1` [Compound 417, N-[(6-amino-2-pyridyl)sulfonyl]-6-tert-butyl-2-(4-fluorophenyl)pyridine-3-carboxamide]: the EC30 entry is “++ (“++” means between 3 uM and 10 uM)”.
Still for that read-out and setting: the same measure for `Cc1ccc(-c2nc3c(cc2C(=O)NS(=O)(=O)c2nccnc2N)CCCC3(C)C)cc1` [Compound 707, N-(3-aminopyrazin-2-yl)sulfonyl-8,8-dimethyl-2-(p-tolyl)-6,7-dihydro-5H-quinoline-3-carboxamide]: “+ (“+” means greater than 10 uM)”; for `COc1ccc(-c2ccc(C(=O)NS(=O)(=O)c3cccc(N)n3)c(N3[C@H](C)CC[C@@H]3C)n2)cn1` [Compound 726, N-[(6-amino-2-pyridyl)sulfonyl]-2-[(2S,5R)-2,5-dimethylpyrrolidin-1-yl]-6-(6-methoxy-3-pyridyl)pyridine-3-carboxamide]: “++ (“++” means between 3 uM and 10 uM)”.
As for `Cc1cc(C)c(Cn2nc(C3(C)CC3)cc2C(=O)NS(=O)(=O)c2cccc(N)c2)c(C)c1` [Compound 158, N-(3-aminophenyl)sulfonyl-5-(1-methylcyclopropyl)-2-[(2,4,6-trimethylphenyl)methyl]pyrazole-3-carboxamide], the EC30 entry was “+++ (“+++” means <3 uM)”.
Consider `CCOc1ccccc1-c1ccc(C(=O)NS(=O)(=O)c2cccc(N)n2)c(Oc2c(C)cc(C)cc2C)n1` [Compound 250, N-[(6-amino-2-pyridyl)sulfonyl]-6-(2-ethoxyphenyl)-2-(2,4,6-trimethylphenoxy)pyridine-3-carboxamide], for which the concentration for an effect of 30% (EC30) result is “+++ (“+++” means <3 uM)”.
